# Laboratory results published in ChEMBL document CHEMBL1135069, “The discovery of acylated beta-amino acids as potent and orally bioavailable VLA-4 antagonists” (Bioorg Med Chem Lett, 2002).
# What was measured:
# Integrin alpha-4/beta-1 [1] = target: T1, Integrin alpha-4/beta-1 (Homo sapiens, UniProt P05556+P13612); test: Inhibitory activity against alpha-4 beta-1 receptor (VLA-4) in human RPMI-8866 cells using [125I]-VCAM-Ig ligand; type: cell-based
# [2] = Bioavailability in rat (dose 1 mg/kg i.v. and 2 mg/kg p.o.); settings: in vivo, po, F
# in vivo = settings: Sprague-Dawley, rat, plasma, iv, 1 mg/kg
# Rattus norvegicus = species: Rattus norvegicus; settings: in vivo, iv, 1 mg/kg
# Integrin alpha-4/beta-1 [3] = target: T1, Integrin alpha-4/beta-1; test: Inhibition of [125I]VCAM-Ig binding to alpha4-beta1 (VLA-4) of human RPMI-8866 cells; type: cell-based
# T1 sequence (P05556 whole entry): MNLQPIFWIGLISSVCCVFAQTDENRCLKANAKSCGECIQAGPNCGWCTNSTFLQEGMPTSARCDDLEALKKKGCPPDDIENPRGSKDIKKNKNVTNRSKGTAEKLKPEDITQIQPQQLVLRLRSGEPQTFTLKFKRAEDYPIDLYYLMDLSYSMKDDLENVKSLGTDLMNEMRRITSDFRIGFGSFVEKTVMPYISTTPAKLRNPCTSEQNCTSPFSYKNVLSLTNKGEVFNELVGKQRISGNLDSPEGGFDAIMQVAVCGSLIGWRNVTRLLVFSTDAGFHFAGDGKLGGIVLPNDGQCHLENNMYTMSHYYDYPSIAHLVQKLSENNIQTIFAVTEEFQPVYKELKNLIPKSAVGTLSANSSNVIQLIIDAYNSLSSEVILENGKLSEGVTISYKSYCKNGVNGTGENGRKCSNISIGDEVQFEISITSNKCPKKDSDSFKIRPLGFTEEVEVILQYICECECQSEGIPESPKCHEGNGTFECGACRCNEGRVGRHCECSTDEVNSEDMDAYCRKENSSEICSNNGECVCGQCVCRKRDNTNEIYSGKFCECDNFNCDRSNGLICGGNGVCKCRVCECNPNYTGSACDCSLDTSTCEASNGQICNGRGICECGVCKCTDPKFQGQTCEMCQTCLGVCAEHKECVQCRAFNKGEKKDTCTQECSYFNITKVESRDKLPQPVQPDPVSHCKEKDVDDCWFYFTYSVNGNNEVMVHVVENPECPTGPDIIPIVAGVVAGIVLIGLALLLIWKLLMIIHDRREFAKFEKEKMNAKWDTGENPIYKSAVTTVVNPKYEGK
# T1 sequence (P13612 whole entry): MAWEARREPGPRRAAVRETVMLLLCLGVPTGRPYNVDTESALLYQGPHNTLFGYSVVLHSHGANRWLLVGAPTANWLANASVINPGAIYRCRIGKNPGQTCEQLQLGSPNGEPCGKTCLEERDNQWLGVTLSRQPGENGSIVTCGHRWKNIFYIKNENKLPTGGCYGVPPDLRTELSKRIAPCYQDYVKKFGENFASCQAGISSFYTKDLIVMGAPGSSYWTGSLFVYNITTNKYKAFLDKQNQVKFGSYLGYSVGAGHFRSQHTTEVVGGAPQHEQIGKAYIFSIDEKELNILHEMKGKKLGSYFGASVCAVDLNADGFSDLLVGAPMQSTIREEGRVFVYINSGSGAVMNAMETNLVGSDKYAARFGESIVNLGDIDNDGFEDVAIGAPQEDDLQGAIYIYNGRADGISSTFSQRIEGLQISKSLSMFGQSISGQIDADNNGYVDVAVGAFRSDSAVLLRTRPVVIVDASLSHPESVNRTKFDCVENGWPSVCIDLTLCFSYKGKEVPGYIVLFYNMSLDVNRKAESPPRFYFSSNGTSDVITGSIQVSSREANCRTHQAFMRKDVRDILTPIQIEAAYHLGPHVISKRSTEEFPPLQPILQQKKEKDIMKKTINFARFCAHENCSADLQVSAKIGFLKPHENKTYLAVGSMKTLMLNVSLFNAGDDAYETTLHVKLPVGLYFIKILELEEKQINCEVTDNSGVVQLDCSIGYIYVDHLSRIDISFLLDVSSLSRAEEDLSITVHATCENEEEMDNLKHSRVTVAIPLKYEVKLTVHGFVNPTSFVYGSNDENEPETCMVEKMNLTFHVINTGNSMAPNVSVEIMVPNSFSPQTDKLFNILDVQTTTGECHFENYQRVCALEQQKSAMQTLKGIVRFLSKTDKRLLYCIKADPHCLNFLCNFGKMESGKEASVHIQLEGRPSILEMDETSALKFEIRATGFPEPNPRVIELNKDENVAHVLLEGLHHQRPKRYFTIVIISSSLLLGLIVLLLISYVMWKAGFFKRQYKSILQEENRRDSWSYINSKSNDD
Compound,IC50 (Integrin alpha-4/beta-1 [1]) [nM],clearance (in vivo) [mL/min/kg],also measured
O=C(O)C[C@@H](NC(=O)[C@@H]1CCN1S(=O)(=O)c1cc(Cl)cc(Cl)c1)c1ccc(OC(F)F)cc1,1.3,–,–
O=C(O)C[C@H](NC(=O)[C@@H]1CCCN1S(=O)(=O)c1cc(Cl)cc(Cl)c1)c1ccccc1,544,–,–
COc1ccc([C@](C)(CC(=O)O)NC(=O)[C@@H]2CCN2S(=O)(=O)c2cc(Cl)cc(Cl)c2)cc1,26,46,bioavailability [2]: 19%
Cc1ccccc1NC(=O)Nc1ccc(CN[C@@H](CC(C)C)C(=O)N[C@@H](CC(=O)O)c2ccc3c(c2)OCO3)cc1,3,–,–
O=C(O)C[C@@H](NC(=O)[C@@H]1CCN1S(=O)(=O)c1cc(Cl)cc(Cl)c1)c1ccc(Oc2ccccc2)cc1,3.1,–,–
C/C=C/[C@@H](CC(=O)O)NC(=O)[C@@H]1CCCN1S(=O)(=O)c1cc(Cl)cc(Cl)c1,13,–,–
COc1ccc([C@@H](CC(=O)O)NC(=O)[C@@H]2CCN2S(=O)(=O)c2cc(Cl)cc(Cl)c2)cn1,3,55,–
O=C(O)C[C@@H](NC(=O)[C@@H]1CCN1S(=O)(=O)c1cc(Cl)cc(Cl)c1)c1ccc(OCC(F)(F)F)cc1,1.4,43,bioavailability [2]: 38%
O=C(O)C[C@@H](NC(=O)[C@@H]1CCN1S(=O)(=O)c1cc(Cl)cc(Cl)c1)c1ccccc1,–,27,IC50 (Integrin alpha-4/beta-1 [3]): 2.4 nM
CC(C)[C@H](CC(=O)O)NC(=O)[C@@H]1CCCN1S(=O)(=O)c1cc(Cl)cc(Cl)c1,362,–,–
O=C(O)CCNC(=O)[C@@H]1CCCN1S(=O)(=O)c1cc(Cl)cc(Cl)c1,1510,–,–
CC(C)[C@@H](CC(=O)O)NC(=O)[C@@H]1CCCN1S(=O)(=O)c1cc(Cl)cc(Cl)c1,8.9,–,–
O=C(O)C[C@H](Cc1ccccc1)NC(=O)[C@@H]1CCCN1S(=O)(=O)c1cc(Cl)cc(Cl)c1,22,–,–
O=C(O)[C@H](Cc1ccccc1)NC(=O)[C@@H]1CCCN1S(=O)(=O)c1cc(Cl)cc(Cl)c1,1.4,–,–
O=C(O)C[C@@H](NC(=O)[C@@H]1CCN1S(=O)(=O)c1cc(Cl)cc(Cl)c1)c1ccc(Br)cc1,2.1,–,–
COc1ccc([C@@H](CC(=O)O)NC(=O)[C@]2(C)CCN2S(=O)(=O)c2cc(Cl)cc(Cl)c2)cc1,1.5,7,–
O=C(O)C[C@@H](NC(=O)[C@@H]1CCN1S(=O)(=O)c1cc(Cl)cc(Cl)c1)c1ccc(Cl)c(F)c1,11,–,–
O=C(O)C[C@@H](NC(=O)[C@@H]1CCN1S(=O)(=O)c1cc(Cl)cc(Cl)c1)c1ccc(F)cc1,3.2,–,–

# Further lines, with some results ahead:
IC50 (Integrin alpha-4/beta-1 [1]) [nM],clearance (in vivo) [mL/min/kg],Compound,also measured
2.6,22,O=C(O)C[C@@H](NC(=O)[C@@H]1CCCN1S(=O)(=O)c1cc(Cl)cc(Cl)c1)c1ccc(OC(F)(F)F)cc1,–
0.74,22,O=C(O)C[C@@H](NC(=O)[C@@H]1CCCN1S(=O)(=O)c1cc(Cl)cc(Cl)c1)c1ccc(O)cc1,–
0.49,–,COc1ccc([C@@H](CC(=O)O)NC(=O)[C@@H]2CCN2S(=O)(=O)c2cc(Cl)cc(Cl)c2)cc1 (stereo in doubt; 7g),clearance (Rattus norvegicus): 17 mL/min/kg
0.55,92,CS(=O)(=O)c1ccc([C@@H](CC(=O)O)NC(=O)[C@@H]2CCCN2S(=O)(=O)c2cc(Cl)cc(Cl)c2)cc1,–
0.85,26,O=C(O)C[C@@H](NC(=O)[C@@H]1CCCN1S(=O)(=O)c1cc(Cl)cc(Cl)c1)c1ccc(OC2CC2)cc1,–
0.31,70,O=C(O)C[C@@H](NC(=O)[C@@H]1CCN1S(=O)(=O)c1cc(Cl)cc(Cl)c1)c1ccc(OC2CC2)cc1,–
0.5,165,O=C(O)C[C@@H](NC(=O)[C@@H]1CCN1S(=O)(=O)c1cc(Cl)cc(Cl)c1)c1ccc(OC2CCCC2)cc1,–
0.27,40,CCOc1ccc([C@@H](CC(=O)O)NC(=O)[C@@H]2CCCN2S(=O)(=O)c2cc(Cl)cc(Cl)c2)cc1,–
0.39,–,COc1ccc([C@@H](CC(=O)O)NC(=O)[C@@H]2CCN2S(=O)(=O)c2cc(Cl)cc(Cl)c2)cc1 (stereo in doubt; 6g),clearance (Rattus norvegicus): 39 mL/min/kg
0.72,–,O=C(O)C[C@@H](NC(=O)[C@@H]1CCN1S(=O)(=O)c1cc(Cl)cc(Cl)c1)c1ccc(OCF)cc1,–
0.53,–,CC(C)(C)Oc1ccc([C@@H](CC(=O)O)NC(=O)[C@@H]2CCCN2S(=O)(=O)c2cc(Cl)cc(Cl)c2)cc1,–
